Source: patent US11214556B1, “Method of treating colorectal cancer” (King Abdulaziz University, priority 2019, dated 2022)

System: Swiss albino mice
Assay: Acute oral toxicity (LD50), OECD guideline 423
Format: in vivo
Conditions: oral, mice
From the text: Since compounds with electrophilic properties, e.g., MA are usually involved in a variety of toxic effects on mammalians, the general acute toxicity of 1512, 3712 and 4112 was investigated by determining the in vivo lethal dose (LD50) according to the Globally Harmonized Classification System (GHS) and following the Organization for Economic Cooperation and Development (OECD) guideline 423 (modified, adopted Mar. 23, 2006). As observed in the cellular assay, the compound safety was confirmed, as the LD50 for all compounds were between 2000-5000 mg/kg (Category 5). See Spielmann, H.; Genschow, E.; Liebsch, M.; Halle, W., Determination of the starting dose for acute oral toxicity (LD50) testing in the up and down procedure (UDP) from cytotoxicity data. ATLA 1999, 27 (6), 957-966, incorporated herein by reference in its entirety.
The experiment was conducted on 12 healthy Swiss albino mice (males and females) weighing 22-27 g and aged 8 to 10 weeks obtained from the Animal Station, Pharmacology Dept, Faculty of Pharmacy, King Abdulaziz University, Jeddah. See Shoieb, S. M.; Esmat, A.; Khalifa, A. E.; Abdel-Naim, A. B., Chrysin attenuates testosterone-induced benign prostate hyperplasia in rats. Food and Chemical Toxicology 2018, 111, 650-659, incorporated herein by reference in its entirety. All animals were kept at the regulated temperature (average 23° C.), air quality (Central air conditioning) and light (12-h light/dark cycles). Animals were provided free access to food pellets ad libitum and water. The experimental procedure was approved by the Research Ethics Committee, Faculty of Pharmacy, King Abdulaziz University prior to starting the laboratory work. Animals were humanely treated according to international and scientific principles. Changes other than vitality of the animals such as behavioral and food consumption habits were not observed in this study.
The compounds 1512, 3712 and 4112 of purity 95% or more (LC/MS) were prepared for this study as 10% suspension in water containing 0.5% tween 80.
The animals were distributed randomly into four groups (3 mice at each group). […] The second group received an oral dose of 2000 mg/Kg of the drug and observed after 24 h to count the deceased animals. According to the Guideline 423, when all animals were found alive, the same test was repeated (dose 2000 mg/kg) were given to the third group (3 animals) and observed for 24 h. All animals survived and therefore, a dose of 5000 mg/kg were administered to the fourth and final group.

SMILES: CCCNC(=O)/C(=C/c1c[nH]c2ccccc12)NC(=O)/C=C/c1cccs1 [Compound 4112, (Z)-3-(1H-indol-3-yl)-N-propyl-2-[(E)-3-(thien-2-yl)acrylamidolacry]amide]
- GHS acute toxicity category: Category 5
